According to patent publication EP0049683A2, “Imidazo-rifamycines, process for their preparation, pharmaceutical preparations containing them and their use” (CIBA-GEIGY AG, priority 1980, dated 1982):
In brackets after ≈: the same amount, converted by molar mass.

Tests used:
Assay in all cases: Agar dilution MIC in DST agar (Ericsson and Sherris)
Format in all cases: cell-based
Proteus morganii 2359 = conditions: for MIC: Morganella morganii, 2359, in vitro, read-out: MIC Prot. 2359; for MIC Prot. 2359: in vitro
In short: (§1)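 Compounds are incorporated into agar at graded levels and the test strain is applied; the lowest concentration still suppressing its growth is recorded as the MIC in µg/ml.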

[1] = tested on: Salmonella Typhimurium 277; conditions: in vitro; for MIC: Salmonella enterica, TYPHIMURIUM, read-out: MIC Salm. 277
In short: as §1

Escherichia coli 2018 = conditions: for MIC: Escherichia coli, 2018, in vitro, read-out: MIC Esch. 2018; for MIC Esch. 2018: in vitro
In short: as §1

[2] = tested on: Pseudomonas aeruginosa K 799/61; conditions: for MIC: Pseudomonas aeruginosa, K799/61, read-out: MIC Pseu. 799; for MIC Pseu. 799: in vitro, agar dilution, DST agar
In short: as §1

Proteus morganii 1518 = conditions: for MIC: Morganella morganii, 1518, in vitro, read-out: MIC Prot. 1518; for MIC Prot. 1518: in vitro
In short: as §1

[3] = tested on: Staphylococcus aureus 10B; conditions: in vitro; for MIC: Staphylococcus aureus, 10B, read-out: MIC Staph. 10B
In short: as §1

Escherichia coli 205 = conditions: for MIC: Escherichia coli, 205, in vitro, read-out: MIC Esch. 205; for MIC Esch. 205: in vitro
In short: as §1

[4] = tested on: Staphylococcus aureus 2999; conditions: for MIC: Staphylococcus aureus, 2999, in vitro, read-out: MIC Staph. 2999; for MIC Staph. 2999: in vitro
In short: as §1

| SMILES | MIC (Proteus morganii 2359) [µg/mL] | MIC [1] [µg/mL] | MIC (Escherichia coli 2018) [µg/mL] | MIC [2] [µg/mL] | MIC (Proteus morganii 1518) [µg/mL] | MIC [3] [µg/mL] | MIC (Escherichia coli 205) [µg/mL] | MIC [4] [µg/mL] | MIC Prot. 2359 (Proteus morganii 2359) [µg/mL] | MIC Salm. 277 [1] [µg/mL] | MIC Esch. 2018 (Escherichia coli 2018) [µg/mL] | MIC Pseu. 799 [2] [µg/mL] | MIC Prot. 1518 (Proteus morganii 1518) [µg/mL] | MIC Staph. 10B [3] [µg/mL] | MIC Esch. 205 (Escherichia coli 205) [µg/mL] | MIC Staph. 2999 [4] [µg/mL] |
| --- | --- | --- | --- | --- | --- | --- | --- | --- | --- | --- | --- | --- | --- | --- | --- | --- |
| CO[C@H]1/C=C/O[C@@]2(C)Oc3c(C)c(O)c4c(O)c(c5[nH]c(N6CCCCC6)nc5c4c3C2=O)NC(=O)/C(C)=C\C=C\[C@H](C)[C@H](O)[C@@H](C)[C@@H](O)[C@@H](C)[C@H](OC(C)=O)[C@@H]1C [Verbindung 21, 4-Piperidino-imidazolo[4,5-c]rifamycin SV] | 4 (≈ 4.97 µM) | 16 (≈ 19.9 µM) | 4 (≈ 4.97 µM) | 16 (≈ 19.9 µM) | 4 (≈ 4.97 µM) | 0.005 (≈ 0.00621 µM) | 4 (≈ 4.97 µM) | 0.005 (≈ 0.00621 µM) |  |  |  |  |  |  |  |  |
| CCOC(=O)C1CCN(c2nc3c([nH]2)c2c(O)c4c(O)c(C)c5c(c43)C(=O)[C@@](C)(O/C=C/[C@H](OC)[C@@H](C)[C@@H](OC(C)=O)[C@H](C)[C@H](O)[C@H](C)[C@@H](O)[C@@H](C)/C=C/C=C(/C)C(=O)N2)O5)CC1 [Verbindung 22, 4-(4-Ethoxycarbonyl-1-piperidyl)-imidazolo[4,5-c]rifamycin SV] | 4 (≈ 4.56 µM) | 32 (≈ 36.5 µM) | 8 (≈ 9.12 µM) | 16 (≈ 18.2 µM) | 4 (≈ 4.56 µM) | 0.005 (≈ 0.0057 µM) | 16 (≈ 18.2 µM) | 0.005 (≈ 0.0057 µM) |  |  |  |  |  |  |  |  |
| CO[C@H]1/C=C/O[C@@]2(C)Oc3c(C)c(O)c4c(O)c(c5[nH]c(N6CCC(N(C)C)CC6)nc5c4c3C2=O)NC(=O)/C(C)=C\C=C\[C@H](C)[C@H](O)[C@@H](C)[C@@H](O)[C@@H](C)[C@H](OC(C)=O)[C@@H]1C [Verbindung 23, 4-(4-Dimethylamino-l-piperidyl)-imidazolo[4,5-c]rifamycin SV] | 16 (≈ 18.9 µM) | 16 (≈ 18.9 µM) | 8 (≈ 9.43 µM) | 16 (≈ 18.9 µM) | 16 (≈ 18.9 µM) | 0.1 (≈ 0.118 µM) | 16 (≈ 18.9 µM) | 0.1 (≈ 0.118 µM) |  |  |  |  |  |  |  |  |
| CO[C@H]1/C=C/O[C@@]2(C)Oc3c(C)c(O)c4c(O)c(c5[nH]c(N6CCC(N7CCCCC7)CC6)nc5c4c3C2=O)NC(=O)/C(C)=C\C=C\[C@H](C)[C@H](O)[C@@H](C)[C@@H](O)[C@@H](C)[C@H](OC(C)=O)[C@@H]1C [Verbindung 24, 4-(4-Piperidino-1-piperidyl-)-imidazolo[4,5-c]rifamycin SV] | 4 (≈ 4.5 µM) | 16 (≈ 18 µM) | 4 (≈ 4.5 µM) | 16 (≈ 18 µM) | 8 (≈ 9.01 µM) | 0.05 (≈ 0.0563 µM) | 8 (≈ 9.01 µM) | 0.01 (≈ 0.0113 µM) |  |  |  |  |  |  |  |  |
| CO[C@H]1/C=C/O[C@@]2(C)Oc3c(C)c(O)c4c(O)c(c5nc(N6CCCCCC6)[nH]c5c4c3C2=O)NC(=O)/C(C)=C\C=C\[C@H](C)[C@H](O)[C@@H](C)[C@@H](O)[C@@H](C)[C@H](OC(C)=O)[C@@H]1C [Verbindung 27, 4-(1-Perhydroazepinyl)-imidazolo[4,5-c]rifamycin SV] |  |  |  |  |  |  |  |  | 8 (≈ 9.77 µM) | 32 (≈ 39.1 µM) | 8 (≈ 9.77 µM) | 8 (≈ 9.77 µM) | 2 (≈ 2.44 µM) | 0.001 (≈ 0.00122 µM) | 8 (≈ 9.77 µM) | 0.001 (≈ 0.00122 µM) |
| CCN1CCN(c2nc3c4c(O)c5c(O)c(C)c6c(c5c3[nH]2)C(=O)[C@@](C)(O/C=C/[C@H](OC)[C@@H](C)[C@@H](OC(C)=O)[C@H](C)[C@H](O)[C@H](C)[C@@H](O)[C@@H](C)/C=C/C=C(/C)C(=O)N4)O6)CC1 [Verbindung 31, 4-(4-Ethylpiperazinyl)-imidazolo[4,5-c]rifamycin SV] |  |  |  |  |  |  |  |  | 8 (≈ 9.59 µM) | 32 (≈ 38.4 µM) | 8 (≈ 9.59 µM) | 8 (≈ 9.59 µM) | 8 (≈ 9.59 µM) | 0.002 (≈ 0.0024 µM) | 8 (≈ 9.59 µM) | 0.001 (≈ 0.0012 µM) |
| CCC(C)CN1CCN(c2nc3c([nH]2)c2c(O)c4c(O)c(C)c5c(c43)C(=O)[C@@](C)(O/C=C/[C@H](OC)[C@@H](C)[C@@H](OC(C)=O)[C@H](C)[C@H](O)[C@H](C)[C@@H](O)[C@@H](C)/C=C/C=C(/C)C(=O)N2)O5)CC1 (some centres unmarked) [Verbindung 38, 4-[4-(2-Methyl-butyl)piperazinyl]-imidazolo[4,5-c]rifamycin SV] | 2 (≈ 2.28 µM) | 16 (≈ 18.3 µM) | 2 (≈ 2.28 µM) | 16 (≈ 18.3 µM) | 4 (≈ 4.57 µM) | 0.005 (≈ 0.00571 µM) | 4 (≈ 4.57 µM) | 0.005 (≈ 0.00571 µM) |  |  |  |  |  |  |  |  |
| CO[C@H]1/C=C/O[C@@]2(C)Oc3c(C)c(O)c4c(O)c(c5[nH]c(N6CCN(CCC(C)C)CC6)nc5c4c3C2=O)NC(=O)/C(C)=C\C=C\[C@H](C)[C@H](O)[C@@H](C)[C@@H](O)[C@@H](C)[C@H](OC(C)=O)[C@@H]1C [Verbindung 40, 4-[4-(3-Methylbutyl)piperazinyl]-imidazolo[4,5-c]rifamycin SV] | 8 (≈ 9.13 µM) | 32 (≈ 36.5 µM) | 8 (≈ 9.13 µM) | 16 (≈ 18.3 µM) | 8 (≈ 9.13 µM) | 0.005 (≈ 0.00571 µM) | 8 (≈ 9.13 µM) | 0.005 (≈ 0.00571 µM) |  |  |  |  |  |  |  |  |
| C=CCCN1CCN(c2nc3c([nH]2)c2c(O)c4c(O)c(C)c5c(c43)C(=O)[C@@](C)(O/C=C/[C@H](OC)[C@@H](C)[C@@H](OC(C)=O)[C@H](C)[C@H](O)[C@H](C)[C@@H](O)[C@@H](C)/C=C/C=C(/C)C(=O)N2)O5)CC1 [Verbindung 45, 4-[4-(3-Butenyl)-piperazinyl]-imidazolo[4,5-c]rifamycin SV] | 8 (≈ 9.3 µM) | 32 (≈ 37.2 µM) | 1 (≈ 1.16 µM) | 32 (≈ 37.2 µM) | 8 (≈ 9.3 µM) | 0.01 (≈ 0.0116 µM) | 8 (≈ 9.3 µM) | 0.005 (≈ 0.00581 µM) |  |  |  |  |  |  |  |  |
| CC=C(CC)CN1CCN(c2nc3c([nH]2)c2c(O)c4c(O)c(C)c5c(c43)C(=O)[C@@](C)(O/C=C/[C@H](OC)[C@@H](C)[C@@H](OC(C)=O)[C@H](C)[C@H](O)[C@H](C)[C@@H](O)[C@@H](C)/C=C/C=C(/C)C(=O)N2)O5)CC1 [Verbindung 47, 4-[4-(2-Ethyl-2-butenyl)-piperazinyl]-imidazolo[4,5-c]-rifamycin SV] | 4 (≈ 4.5 µM) | 16 (≈ 18 µM) | 4 (≈ 4.5 µM) | 32 (≈ 36 µM) | 4 (≈ 4.5 µM) | 0.005 (≈ 0.00563 µM) | 8 (≈ 9.01 µM) | 0.005 (≈ 0.00563 µM) |  |  |  |  |  |  |  |  |
| CO[C@H]1/C=C/O[C@@]2(C)Oc3c(C)c(O)c4c(O)c(c5[nH]c(N6CCN(CC(C)=C(C)C)CC6)nc5c4c3C2=O)NC(=O)/C(C)=C\C=C\[C@H](C)[C@H](O)[C@@H](C)[C@@H](O)[C@@H](C)[C@H](OC(C)=O)[C@@H]1C [Verbindung 48] | 8 (≈ 9.01 µM) | 32 (≈ 36 µM) | 8 (≈ 9.01 µM) | 32 (≈ 36 µM) | 8 (≈ 9.01 µM) | 0.001 (≈ 0.00113 µM) | 32 (≈ 36 µM) | 0.001 (≈ 0.00113 µM) |  |  |  |  |  |  |  |  |
| C#CCN1CCN(c2nc3c([nH]2)c2c(O)c4c(O)c(C)c5c(c43)C(=O)[C@@](C)(O/C=C/[C@H](OC)[C@@H](C)[C@@H](OC(C)=O)[C@H](C)[C@H](O)[C@H](C)[C@@H](O)[C@@H](C)/C=C/C=C(/C)C(=O)N2)O5)CC1 [Verbindung 49, 4-(4-Propargylpiperazinyl)-imidazolo[4,5-c]rifamycin SV] | 8 (≈ 9.48 µM) | 32 (≈ 37.9 µM) | 32 (≈ 37.9 µM) | 8 (≈ 9.48 µM) | 8 (≈ 9.48 µM) | 0.001 (≈ 0.00118 µM) | 8 (≈ 9.48 µM) | 0.001 (≈ 0.00118 µM) |  |  |  |  |  |  |  |  |
| CO[C@H]1/C=C/O[C@@]2(C)Oc3c(C)c(O)c4c(O)c(c5nc(N6CCN(C7CCCC7)CC6)[nH]c5c4c3C2=O)NC(=O)/C(C)=C\C=C\[C@H](C)[C@H](O)[C@@H](C)[C@@H](O)[C@@H](C)[C@H](OC(C)=O)[C@@H]1C [Verbindung 50, 4-(4-Cyclopentylpiperazinyl)-imidazolo[4,5-c]rifamycin SV] | 8 (≈ 9.15 µM) | 32 (≈ 36.6 µM) | 8 (≈ 9.15 µM) | 8 (≈ 9.15 µM) | 8 (≈ 9.15 µM) | 0.01 (≈ 0.0114 µM) | 8 (≈ 9.15 µM) | 0.01 (≈ 0.0114 µM) |  |  |  |  |  |  |  |  |
